In US10507213B2, “Method for treating cancer using a selenourea-coordinated gold(I)-carbene complex” (King Fahd University of Petroleum and Minerals, priority 2017, dated 2019):

Tests used:
[1] = tested on: MCF7 (breast cancer cells); assay: in vitro cytotoxicity, MTT assay, MCF7; type: cell-based, human; conditions: 72 h incubation, three independent experiments, read-out: IC50 values against MCF7 cancer cell line
Method: (§1) The complexes, [Au(IPr)Cl] and [Au(IPr)(Seu)]PF6 (1) were tested for their in vitro cytotoxic effects against human cell lines; MCF7 (breast cancer), HCI15 (colon cancer) and A549 (lung carcinoma) as reported previously. See M. Altaf, M. Monim-ul-Mehboob, A. A. A. Seliman, A. A. Tsai), V. Dhuna, G. Bhatia, K. Dhuna, Synthesis, X-ray Structures, Spectroscopic Analysis and Anticancer Activity of Novel Gold(I) Carbene Complexes, J. Organomet. Chem, 765 (2014) 68-79, incorporated herein by reference in its entirety. The cells were seeded at the concentration of 3×10^3 cells/well in 100 μL of DMEM containing 10% fetal bovine serum (FBS) in a 96-well tissue culture plate and incubated for 72 h at 37° C., 5% CO2 and 90% relative humidity in a CO2 incubator. After that 100 μL of 100, 50, 25 and 12.5 μM solutions of cisplatin and gold(I) complexes prepared in DMEM were added to the cells and the cultures were incubated for 72 h. The medium in the wells was cast off and 100 μL of DMEM containing MTT (0.5 mg/ml) was added to the wells, with subsequent incubation in the CO2 incubator at 37° C. in the dark for 4 h. After incubation, purple-colored formazan produced by the cells appeared as dark crystals in the bottom of the wells. The culture medium was carefully removed from each well to prevent disruption of the monolayer and 100 μL of dimethylsulfoxide (DMSO) was added to each well. The solution in the wells was thoroughly mixed to dissolve the formazan crystals which produce a purple solution. The absorbance of the 96 well-plates was measured at 570 nm with LabSystems Multiskan EX-ELISA reader against a reagent blank. The experimental results are calculated as the micromolar concentration of 50% cell growth inhibition (IC50) of each drug. The MTT assay was carried out in three independent experiments for each analysis. […]

A549 (lung carcinoma) = assay: in vitro cytotoxicity, MTT assay, A549; type: cell-based, human; conditions: 72 h incubation, three independent experiments, read-out: IC50 values against A549 cancer cell line
Method: The complexes, [Au(IPr)Cl] and [Au(IPr)(Seu)]PF6 (1) were tested for their in vitro cytotoxic effects against human cell lines; MCF7 (breast cancer), HCI15 (colon cancer) and A549 (lung carcinoma) as reported previously. See M. Altaf, M. Monim-ul-Mehboob, A. A. A. Seliman, A. A. Tsai), V. Dhuna, G. Bhatia, K. Dhuna, Synthesis, X-ray Structures, Spectroscopic Analysis and Anticancer Activity of Novel Gold(I) Carbene Complexes, J. Organomet. Chem, 765 (2014) 68-79, incorporated herein by reference in its entirety. The cells were seeded at the concentration of 3×10^3 cells/well in 100 μL of DMEM containing 10% fetal bovine serum (FBS) in a 96-well tissue culture plate and incubated for 72 h at 37° C., 5% CO2 and 90% relative humidity in a CO2 incubator. […] The medium in the wells was cast off and 100 μL of DMEM containing MTT (0.5 mg/ml) was added to the wells, with subsequent incubation in the CO2 incubator at 37° C. in the dark for 4 h. After incubation, purple-colored formazan produced by the cells appeared as dark crystals in the bottom of the wells. The culture medium was carefully removed from each well to prevent disruption of the monolayer and 100 μL of dimethylsulfoxide (DMSO) was added to each well. The solution in the wells was thoroughly mixed to dissolve the formazan crystals which produce a purple solution. The absorbance of the 96 well-plates was measured at 570 nm with LabSystems Multiskan EX-ELISA reader against a reagent blank. The experimental results are calculated as the micromolar concentration of 50% cell growth inhibition (IC50) of each drug. The MTT assay was carried out in three independent experiments for each analysis.
The complexes, [Au(Ipr)Cl] and [Au(Ipr)(Seu)]PF6 or Complex (I), as well as cisplatin (standard anticancer drug) were tested for in vitro cytotoxicity against three human cancer cell lines; A549 (lung carcinoma), HCT15 (colon cancer cells) and MCF7 (breast cancer cells) using MTT assay.
The IC50 values (as μM) obtained from the plot of the concentration of compounds against the percentage of cell viability are given in Table 4. […]

[2] = tested on: HCT15 (colon cancer cells); assay: in vitro cytotoxicity, MTT assay, HCT15; type: cell-based, human; conditions: 72 h incubation, three independent experiments, read-out: IC50 values against HCT15 cancer cell line
Method: as §1

[3] = stability in polar solvents; type: physicochemical; conditions: water, methanol, ethanol, acetone; deuterated solvents such as dichloromethane
[4] = stability by square wave stripping voltammetry (SWSV) in phosphate buffer; type: physicochemical; conditions: phosphate buffer pH 7.0, SWSV, 50, 75 and 100 μM
Method: (§2) Electrochemical (Square wave stripping voltammetry, SWSV) measurements were performed on a CH Instrument (CHI 1232A) potentiostat. Electrochemical cell comprises of a platinum wire as a counter electrode, an Ag/AgCl saturated with KCl as reference electrode and glassy carbon electrode (GCE; 3.0 mm diameter, Model CHI104, CH Instruments, Austin, Tex.) as a working electrode inserted into 2.0 mL glass cell containing phosphate buffer solution, pH 7.0 as supporting electrolyte. 0.1 M buffer solution was prepared by mixing, appropriate volumes of 0.2 M monosodium phosphate and disodium phosphate prepared with distilled water. Stock solutions of the complex prepared with methanol, while L-tyrosine and L-tryptophan were prepared by dissolving in 0.10 M NaOH in ratio 1:4 with distilled water. GCE was polished with 0.05 μm alumina, rinsed with distilled water prior to every SWSV measurements at room temperature in a quiescent condition at potential windows between −0.20 V and 1.20 V for the stability and 0.00 V and 1.20 V for the interaction studies. Working conditions are; pulse width (increment) 4 mV, pulse height (amplitude) 25 mV and frequency, 15 Hz.
(§3) The stability and electrochemical behavior of complex 1 were examined by its electroactive properties in phosphate buffer solution of pH 7.0 using SWSV technique (Square wave stripping voltammetry). […]

[5] = solubility in phosphate buffer estimated from SWSV; type: physicochemical; conditions: 0.1 M phosphate buffer (pH 7.0); estimation based on the highest soluble concentration
Method: as §2, §3

N.N.[Cl][Pt][Cl] [Cisplatin]
IC50 [1]: 23 ± 4 µM | IC50 (A549 (lung carcinoma)): 42 ± 2 µM | IC50 [2]: 32 ± 2 µM

CC(C)c1cccc(C(C)C)c1-n1cc[n+](-c2c(C(C)C)cccc2C(C)C)[c]1[Au-][Se+]=C(N)N.F[P-](F)(F)(F)(F)F [Complex 1, [Au(IPr)(Seu)]PF6]
IC50 [1]: 75 ± 3 µM | stability in polar solvents [3]: stable in polar solvents such as water, methanol, ethanol and acetone | IC50 (A549 (lung carcinoma)): 82 ± 1 µM | IC50 [2]: 76 ± 2 µM | stability in aqueous solution [4]: stable in aqueous solution | solubility in phosphate buffer [5]: ≥ 8.53 mg/100 ml

chlorido[1,3-Bis(2,6-di isopropylphenyl)imidazol-2-ylidene]gold(I) [[Au(Ipr)Cl]]
IC50 [1]: 110 ± 2 µM | IC50 (A549 (lung carcinoma)): 180 ± 2 µM | IC50 [2]: 122 ± 1 µM
